This is an account of results in ChEMBL document CHEMBL1131808, “Potent immunosuppressive C32-O-arylethyl ether derivatives of ascomycin with reduced toxicity” (Bioorg Med Chem Lett, 1999).

SMILES strings stand for the structures. The source made the active and inactive calls. The rule behind the calls is not given here.

The target of test [1] is Peptidyl-prolyl cis-trans isomerase FKBP1A (Homo sapiens, UniProt P62942). Put plainly: Effective concentration against FK506 binding protein 12 using [3H]-dihydro FK-506.
Chain of Peptidyl-prolyl cis-trans isomerase FKBP1A (P62942 whole entry): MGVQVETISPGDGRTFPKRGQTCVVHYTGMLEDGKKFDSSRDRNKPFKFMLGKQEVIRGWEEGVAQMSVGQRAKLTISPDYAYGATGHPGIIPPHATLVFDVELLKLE
In test [2] the test system is Mus musculus. Put plainly: In vivo immunosuppression in murine models by splenic T-cell proliferation assay after intravenous administration. Format: functional.
The subject of test [3] is Mus musculus. As to the kind of experiment: In vivo immunosuppression in murine models by splenic T-cell proliferation assay after peroral administration. Format: functional. Conditions: po.
For test [4], the species on record is Mus musculus. Put plainly: The compound was tested for its inhibitory activity against T-cell proliferation using murine splenic T-cells. Format: functional.
In test [5] the test system is Rattus norvegicus. Put plainly: Cytotoxicity was determined by hypothermia induction after intravenous administration in rat. Format: functional.
The subject of test [6] is Rattus norvegicus. As to the kind of experiment: The compound was tested for % reduction of nephrotoxicity in rat after intravenous administration at dose 10 mg/kg. Format: functional.
Test [7] in a line: Ratio of hypothermia (ED50) by Murine (ED50) in vivo. Format: functional.
In test [8] the test system is Rattus norvegicus. As to the kind of experiment: Tested for nephrotoxicity in Dawley rats and measured for blood urea nitrogen levels after intravenous administration at dose 5 mg/kg. It counts as functional.
Test [9] concerns Rattus norvegicus. As to the kind of experiment: Tested for nephrotoxicity in Dawley rats and measured for plasma drug level after intravenous administration at dose 10 mg/kg. Format: functional.
Test [10] deals with Rattus norvegicus. Put plainly: Tested for nephrotoxicity in Dawley rats and measured for plasma drug level after intravenous administration at dose 20 mg/kg. It counts as functional.
Test [11] has as its system Rattus norvegicus. As to the kind of experiment: Tested for nephrotoxicity in Dawley rats and measured for plasma drug level after intravenous administration at dose 40 mg/kg. Format: functional.
For test [12], the system named is Rattus norvegicus. As to the kind of experiment: Tested for nephrotoxicity in Dawley rats and measured for plasma drug level after intravenous administration at dose 5 mg/kg. It counts as functional.
In test [13] the test system is Rattus norvegicus. Put plainly: Tested for nephrotoxicity in Dawley rats and measured for blood urea nitrogen levels after intravenous administration at dose 10 mg/kg. It counts as functional.
The subject of test [14] is Rattus norvegicus. As to the kind of experiment: Tested for nephrotoxicity in Dawley rats and measured for blood urea nitrogen levels after intravenous administration at dose 20 mg/kg. It counts as functional.
The test system of test [15] is Rattus norvegicus. As to the kind of experiment: Tested for nephrotoxicity in Dawley rats and measured for blood urea nitrogen levels after intravenous administration at dose 40 mg/kg. It counts as functional.
For test [16], the system named is Rattus norvegicus. As to the kind of experiment: The compound was tested for % reduction of nephrotoxicity in rat after intravenous administration at dose 20 mg/kg. It counts as functional.
Test [17] relates to Rattus norvegicus. As to the kind of experiment: The compound was tested for % reduction of nephrotoxicity in rat after intravenous administration at dose 20 mg/kg; NE denotes no effect. It counts as functional, organism-based. Set-up: dose 20 mg/kg.
For test [18], the system named is Rattus norvegicus. As to the kind of experiment: Tested for nephrotoxicity in Dawley rats and measured for plasma drug level after intravenous administration at dose 2.5 mg/kg. It counts as functional.
Test [19] deals with Rattus norvegicus. As to the kind of experiment: Tested for nephrotoxicity in Dawley rats and measured for blood urea nitrogen levels after intravenous administration at dose 2.5 mg/kg. It counts as functional.
Test [20] deals with Rattus norvegicus. As to the kind of experiment: The compound was tested for % reduction of nephrotoxicity in rat after intravenous administration at dose 1.7 mg/kg. Format: functional.
Test [21] deals with Rattus norvegicus. As to the kind of experiment: The compound was tested for % reduction of nephrotoxicity in rat after intravenous administration at dose 5 mg/kg. It counts as functional.

In turn, `CC[C@@H]1/C=C(\C)C[C@H](C)C[C@H](OC)[C@H]2O[C@@](O)(C(=O)C(=O)N3CCCC[C@H]3C(=O)O[C@H](/C(C)=C/C3CC[C@@H](OC[C@@H](O)c4ccc(F)c(F)c4)[C@H](OC)C3)[C@H](C)[C@H](O)CC1=O)[C@H](C)C[C@@H]2OC` (stereo partly specified) displayed an EC50 in [1] of 7.5 nM. The figures for the ED50 with Mus musculus [2], with Mus musculus [3] and in the test with Rattus norvegicus [5] were 0.19 mg/kg, 2.8 mg/kg and 10 mg/kg, respectively. In the test filed under Mus musculus [4], this compound displayed an IC50 of 0.14 nM. The same compound displayed a Reduction with Rattus norvegicus [6] of 44%. In [7], the Therapeutic index was 52.
`CC[C@@H]1/C=C(\C)C[C@H](C)C[C@H](OC)[C@H]2O[C@@](O)(C(=O)C(=O)N3CCCC[C@H]3C(=O)O[C@H](/C(C)=C/C3CC[C@@H](OC[C@@H](O)c4ccc5ccccc5c4)[C@H](OC)C3)[C@H](C)[C@H](O)CC1=O)[C@H](C)C[C@@H]2OC` (stereo partly specified) registered an EC50 in [1] of 21.1 nM. In addition, the ED50 in the test with Mus musculus [2] was found to be 0.38 mg/kg; with Mus musculus [3], 3.7 mg/kg; in the test on Rattus norvegicus [5] it was 21.6 mg/kg. In the test filed under Mus musculus [4], this compound had an IC50 of 0.33 nM. Besides, the Nephrotoxicity with Rattus norvegicus [8] stood at 16.3 mg/dL; in the test with Rattus norvegicus [9], 478 ng/mL; in the test with Rattus norvegicus [10] it was 1897 ng/mL; with Rattus norvegicus [11], 3120 ng/mL; with Rattus norvegicus [12], 239 ng/mL; in the test with Rattus norvegicus [13], 17.7 mg/dL. In addition, the Nephrotoxicity was 24.7 mg/dL in the test on Rattus norvegicus [14] and 39.3 mg/dL in the test on Rattus norvegicus [15]. Besides, in the test on Rattus norvegicus [16], the Reduction amounted to 41%. For the same compound, in [7], the Therapeutic index is listed as 57.
For the compound `CC[C@@H]1/C=C(\C)C[C@H](C)C[C@H](OC)[C@H]2O[C@@](O)(C(=O)C(=O)N3CCCC[C@H]3C(=O)O[C@H](/C(C)=C/C3CC[C@@H](OC[C@@H](O)c4cccc(C(F)(F)F)c4)[C@H](OC)C3)[C@H](C)[C@H](O)CC1=O)[C@H](C)C[C@@H]2OC` (stereo partly specified), the EC50 in [1] is 45 nM. In addition, the ED50 with Mus musculus [2] came to 0.31 mg/kg; with Mus musculus [3] it was 3.7 mg/kg; with Rattus norvegicus [5] it was 12.8 mg/kg. The compound also had an IC50 in the test filed under Mus musculus [4] of 0.38 nM. The Reduction result with Rattus norvegicus [17] was “inactive”. Besides, in test [7], the Therapeutic index stood at 41.
As for `C=CC[C@@H]1/C=C(\C)C[C@H](C)C[C@H](OC)[C@H]2O[C@@](O)(C(=O)C(=O)N3CCCC[C@H]3C(=O)O[C@H](/C(C)=C/[C@@H]3CC[C@@H](O)[C@H](OC)C3)[C@H](C)C(O)CC1=O)[C@H](C)C[C@@H]2OC` (single isomer, unassigned) [TACROLIMUS ANHYDROUS], the ED50 in the test with Mus musculus [2] was 0.22 mg/kg; with Mus musculus [3], 2.6 mg/kg; in the test with Rattus norvegicus [5] it was 3.7 mg/kg. In the test listed under Mus musculus [4], this compound returned an IC50 of 0.2 nM. Moreover, the Nephrotoxicity was found to be 21 mg/dL in the test with Rattus norvegicus [8]; 611 ng/mL in the test on Rattus norvegicus [9]; 13 ng/mL in the test with Rattus norvegicus [18]; 45 ng/mL in the test on Rattus norvegicus [12]; 26 mg/dL with Rattus norvegicus [13]; 18.1 mg/dL in the test on Rattus norvegicus [19]. In the test on Rattus norvegicus [20], this compound returned a Reduction of 45%.
On to `CC[C@@H]1/C=C(\C)C[C@H](C)C[C@H](OC)[C@H]2O[C@@](O)(C(=O)C(=O)N3CCCC[C@H]3C(=O)O[C@H](/C(C)=C/C3CC[C@@H](OC[C@H](O)c4ccc(F)c(F)c4)[C@H](OC)C3)[C@H](C)[C@H](O)CC1=O)[C@H](C)C[C@@H]2OC` (stereo partly specified), for which the concentration giving a half-maximal response (EC50) in test [1] turned out to be 13.6 nM. Besides, the ED50 is 0.19 mg/kg in the test on Mus musculus [2], 3.9 mg/kg with Mus musculus [3] and 13.7 mg/kg in the test on Rattus norvegicus [5]. Also, in the test listed under Mus musculus [4], the IC50 is 0.11 nM. The compound also gave a Reduction in the test on Rattus norvegicus [21] of 54%. Besides, the Therapeutic index in test [7] was 72.
Turning to `CC[C@@H]1/C=C(\C)C[C@H](C)C[C@H](OC)[C@H]2O[C@@](O)(C(=O)C(=O)N3CCCC[C@H]3C(=O)O[C@H](/C(C)=C/C3CC[C@@H](OC[C@H](O)c4ccc5ccccc5c4)[C@H](OC)C3)[C@H](C)[C@H](O)CC1=O)[C@H](C)C[C@@H]2OC` (stereo partly specified), the EC50 in test [1] is 18 nM. The figures for the ED50 with Mus musculus [2], in the test with Mus musculus [3] and in the test with Rattus norvegicus [5] were 0.38 mg/kg, 3.4 mg/kg and 14.2 mg/kg, respectively. The midpoint of inhibition in the test listed under Mus musculus [4], the IC50, lay at 0.34 nM. The same compound gave a Reduction in the test on Rattus norvegicus [16] of 40%. Besides, in test [7], the Therapeutic index is 37.
In turn, `CC[C@@H]1/C=C(\C)C[C@H](C)C[C@H](OC)[C@H]2O[C@@](O)(C(=O)C(=O)N3CCCC[C@H]3C(=O)O[C@H](/C(C)=C/C3CC[C@@H](OC[C@@H](O)c4cc5ccccc5s4)[C@H](OC)C3)[C@H](C)[C@H](O)CC1=O)[C@H](C)C[C@@H]2OC` (stereo partly specified) displayed an EC50 in [1] of 11.2 nM. In addition, the ED50 was 0.75 mg/kg in the test with Mus musculus [2], 6.4 mg/kg in the test with Mus musculus [3] and 14.8 mg/kg in the test on Rattus norvegicus [5]. This compound also came in with an IC50 in the test listed under Mus musculus [4] of 0.39 nM. The compound also showed a Reduction in the test on Rattus norvegicus [21] of 32%. Further, the Therapeutic index in [7] turned out to be 20.
Take `CC[C@@H]1/C=C(\C)C[C@H](C)C[C@H](OC)[C@H]2O[C@@](O)(C(=O)C(=O)N3CCCC[C@H]3C(=O)O[C@H](/C(C)=C/C3CC[C@@H](OC[C@@H](O)c4cc(C)cc(C)c4)[C@H](OC)C3)[C@H](C)[C@H](O)CC1=O)[C@H](C)C[C@@H]2OC` (stereo partly specified): a half-maximal effect in test [1] (EC50) was put at 7.5 nM. Besides, the results for the ED50 in the test on Mus musculus [2], with Mus musculus [3] and with Rattus norvegicus [5] were 0.45 mg/kg, 4.5 mg/kg and 10.3 mg/kg, respectively. Further, the IC50 in the test filed under Mus musculus [4] was 0.23 nM. Moreover, the Reduction entry with Rattus norvegicus [17] was “inactive”. The Therapeutic index in test [7] came to 23.
Take `CC[C@@H]1/C=C(\C)C[C@H](C)C[C@H](OC)[C@H]2O[C@@](O)(C(=O)C(=O)N3CCCC[C@H]3C(=O)O[C@H](/C(C)=C/C3CC[C@@H](OC[C@H](O)c4cccc(C(F)(F)F)c4)[C@H](OC)C3)[C@H](C)[C@H](O)CC1=O)[C@H](C)C[C@@H]2OC` (stereo partly specified): the 50% effective concentration (EC50) in test [1] is 45 nM. For the same compound, the ED50 turned out to be 0.29 mg/kg in the test on Mus musculus [2], 5 mg/kg with Mus musculus [3] and 13.7 mg/kg in the test on Rattus norvegicus [5]. The compound further came in with an IC50 in the test listed under Mus musculus [4] of 0.38 nM. Besides, the Reduction in the test with Rattus norvegicus [21] is 51%. Also, the Therapeutic index in [7] is recorded as 47.
In the case of `CC[C@@H]1/C=C(\C)C[C@H](C)C[C@H](OC)[C@H]2O[C@@](O)(C(=O)C(=O)N3CCCC[C@H]3C(=O)O[C@H](/C(C)=C/C3CC[C@@H](OC[C@H](O)c4cc5ccccc5s4)[C@H](OC)C3)[C@H](C)[C@H](O)CC1=O)[C@H](C)C[C@@H]2OC` (stereo partly specified), the EC50 in test [1] worked out at 12 nM. The ED50 in the test on Mus musculus [2] was 0.53 mg/kg; with Mus musculus [3], 5.6 mg/kg. In addition, in the test listed under Mus musculus [4], the IC50 is 0.47 nM.
On to `CC[C@@H]1/C=C(\C)C[C@H](C)C[C@H](OC)[C@H]2O[C@@](O)(C(=O)C(=O)N3CCCC[C@H]3C(=O)O[C@H](/C(C)=C/C3CC[C@@H](OC[C@H](O)c4cc(C)cc(C)c4)[C@H](OC)C3)[C@H](C)[C@H](O)CC1=O)[C@H](C)C[C@@H]2OC` (stereo partly specified), for which the EC50 in test [1] worked out at 9 nM. Also, the ED50 in the test on Mus musculus [2] was found to be 0.49 mg/kg; in the test with Mus musculus [3] it was 4.8 mg/kg; with Rattus norvegicus [5], 7.25 mg/kg. The IC50 in the test listed under Mus musculus [4] came out at 0.34 nM. The same compound gave a Reduction in the test with Rattus norvegicus [6] of 48%. For the same compound, the Therapeutic index in test [7] is listed as 15.

What is called EC50 is the concentration giving half of the maximal effect. High values mean weaker potency, low ones greater potency. The term ED50 denotes the dose that gives a 50% effect, or the effect in half of the subjects. Lower therefore signals greater potency. For orientation: IC50 means the concentration needed to halve the response being measured. High values mean a need for much substance, low ones inhibition by little substance.
